From PMC4539253 (Bioorganic & medicinal chemistry letters, 2014)
Marks after values point to notes of the source that are not given here.

Assays:
Caco-2 = Caco-2 permeability; format: in vitro ADME; settings: <15 is limit of detection
CCR2 = CCR2 (Homo sapiens, UniProt P41597); test: CCR2 binding
mouse CCR2 = mouse CCR2 (Mus musculus, UniProt P51683); test: Activity versus mouse CCR2
human-CCR2 knock-in mice = test: 6-h thioglycollate; settings: mouse, in vivo
wild-type mice = test: TG-induced peritonitis model using wild-type mice; format: in vivo, mouse; settings: data not shown

Sequence of CCR2 (P41597 whole entry): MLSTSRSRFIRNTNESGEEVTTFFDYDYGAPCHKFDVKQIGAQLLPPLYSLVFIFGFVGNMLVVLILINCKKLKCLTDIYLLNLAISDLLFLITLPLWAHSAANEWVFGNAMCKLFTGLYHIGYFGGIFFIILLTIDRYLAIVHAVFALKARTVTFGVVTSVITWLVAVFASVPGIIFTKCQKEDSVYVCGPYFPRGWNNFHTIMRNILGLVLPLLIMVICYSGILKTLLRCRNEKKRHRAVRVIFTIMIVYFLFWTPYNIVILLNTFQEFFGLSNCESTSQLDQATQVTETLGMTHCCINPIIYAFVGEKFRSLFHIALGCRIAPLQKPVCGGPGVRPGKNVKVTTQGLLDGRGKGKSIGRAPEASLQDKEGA
Sequence of mouse CCR2 (P51683 whole entry): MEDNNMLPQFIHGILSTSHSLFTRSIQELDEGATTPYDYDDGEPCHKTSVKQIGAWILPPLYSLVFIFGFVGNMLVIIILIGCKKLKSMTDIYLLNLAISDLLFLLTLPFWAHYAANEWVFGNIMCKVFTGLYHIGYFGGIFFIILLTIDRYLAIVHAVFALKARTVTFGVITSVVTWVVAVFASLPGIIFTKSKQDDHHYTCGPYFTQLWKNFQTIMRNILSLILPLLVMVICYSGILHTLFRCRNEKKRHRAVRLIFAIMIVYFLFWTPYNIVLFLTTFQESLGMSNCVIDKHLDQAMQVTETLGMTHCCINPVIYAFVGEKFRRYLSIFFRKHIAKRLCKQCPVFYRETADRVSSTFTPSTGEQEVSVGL

| Structure (SMILES) | Caco-2 PAP-BL (Caco-2) | activity versus mouse CCR2 (mouse CCR2) | further results |
| --- | --- | --- | --- |
| CCS(=O)(=O)C[C@@H]1C[C@H](N(C)C(C)C)CC[C@@H]1N1CC[C@H](NC(=O)c2cccc(C(F)(F)F)c2)C1=O [Compound 8] | <15 nm/s |  | IC50 (CCR2): 1.3 ± 0.02 nM |
| CC(C)N(C)[C@@H]1CC[C@H](N2CC[C@H](NC(=O)c3cccc(C(F)(F)F)c3)C2=O)[C@H](CS(=O)(=O)c2ccccc2)C1 [Compound 1] | <15 ^e nm/s |  |  |
| CC(C)N(C)[C@@H]1CC[C@H](N2CC[C@H](NC(=O)c3cccc(C(F)(F)F)c3)C2=O)[C@H](CS(C)(=O)=O)C1 [Compound 2] | <15 nm/s | poor activity | inflammatory monocytes (Ly6C+F4/80+) in blood as compared to vehicle (human-CCR2 knock-in mice): significant reduction; loss in CCR2 binding affinity as compared to 1 (CCR2; compared to 1): ~2 fold |
| CC(C)N(C)[C@@H]1CC[C@H](N2CC[C@H](NC(=O)c3cccc(C(F)(F)F)c3)C2=O)[C@H](CS(=O)(=O)C(C)(C)C)C1 [Compound 12] | 30 nm/s | poor activity | activity in TG-induced peritonitis model (wild-type mice): did not show any activity |
| CC(C)N(C)[C@@H]1CC[C@H](N2CC[C@H](NC(=O)c3cccc(C(F)(F)F)c3)C2=O)[C@H](CS(=O)(=O)C(C)C)C1 [Compound 10] | <15 nm/s |  | increase in CCR2 binding affinity as compared to 2 (CCR2; compared to 2): 6 fold |
